Measurements as given in ChEMBL document CHEMBL5380862, “Unsymmetrical Phosphodiesters as GPR84 Antagonists with High Blood Exposure for the Treatment of Lung Inflammation” (J Med Chem, 2023).
Active and inactive are the calls of the source. The rule behind the calls is not given here.

Experiments:
[1] = target: G-protein coupled receptor 84 (Homo sapiens, UniProt Q9NQS5); assay: Antagonist activity at human GPR84 expressed in HEK293 cells co-expressing Galpha16 assessed as inhibition of 6-OAU induced calcium response incubated for 10 mins by calcium mobilization assay; format: functional, cell-based
Mus musculus [2] = assay: Protection against C57BL/6 mouse model of LPS-induced acute […] injury assessed as reduction in total cells in BALF at 100 mg/kg, po pre-treated with compound for 30 mins followed by LPS-stimulation for 12 hrs and measured 24 hrs post LPS stimulation by flow cytometric analysis; format: functional, organism-based; settings: time 24.5 hrs
Mus musculus [3] = assay: (§1) Protection against C57BL/6 mouse model of LPS-induced acute […] injury assessed as reduction in CD45positive immune cells in BALF at 100 mg/kg, po pre-treated with compound for 30 mins followed by LPS-stimulation for 12 hrs and measured 24 hrs post LPS stimulation by flow cytometric analysis; format: functional, organism-based; settings: time 24.5 hrs
Mus musculus [4] = assay: as §1, with “CD11bpositive myeloid” for “immune”; format: functional, organism-based; settings: time 24.5 hrs
Mus musculus [5] = assay: as §1, with “CD11bpositive Ly6Gpositive neutrophils” for “immune cells”; format: functional, organism-based; settings: time 24.5 hrs
Mus musculus [6] = assay: Protection against C57BL/6 mouse model of LPS-induced acute […] injury assessed as amelioration of pulmonary congestion at 100 mg/kg, po pre-treated with compound for 30 mins followed by LPS-stimulation for 12 hrs and measured 24 hrs post LPS stimulation by H&E staining based analysis; format: functional, organism-based; settings: time 24.5 hrs
Mus musculus [7] = assay: Protection against C57BL/6 mouse model of LPS-induced acute […] injury assessed as amelioration of thickening of alveolar wall at 100 mg/kg, po pre-treated with compound for 30 mins followed by LPS-stimulation for 12 hrs and measured 24 hrs post LPS stimulation by H&E staining based analysis; format: functional, organism-based; settings: time 24.5 hrs
Mus musculus [8] = assay: Protection against C57BL/6 mouse model of LPS-induced acute […] injury assessed as amelioration of […] edema at 100 mg/kg, po pre-treated with compound for 30 mins followed by LPS-stimulation for 12 hrs and measured 24 hrs post LPS stimulation by H&E staining based analysis; format: functional, organism-based; settings: time 24.5 hrs

Chain of G-protein coupled receptor 84 (Q9NQS5 whole entry): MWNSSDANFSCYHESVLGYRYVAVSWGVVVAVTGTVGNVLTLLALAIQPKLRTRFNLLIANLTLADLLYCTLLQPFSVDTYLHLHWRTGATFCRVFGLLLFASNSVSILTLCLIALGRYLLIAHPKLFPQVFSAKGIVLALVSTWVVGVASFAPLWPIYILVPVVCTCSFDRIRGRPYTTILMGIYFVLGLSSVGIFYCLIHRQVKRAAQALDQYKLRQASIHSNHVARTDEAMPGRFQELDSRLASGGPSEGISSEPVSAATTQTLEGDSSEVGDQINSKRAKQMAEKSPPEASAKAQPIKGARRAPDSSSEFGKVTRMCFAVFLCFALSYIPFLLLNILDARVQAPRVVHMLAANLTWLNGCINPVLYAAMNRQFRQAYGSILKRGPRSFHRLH

Structure (SMILES)	IC50 [1]	also measured
COc1cccc2c1Sc1ccccc1C=C2OP(=O)(O)O[C@H]1C[C@@H](C)CC[C@@H]1C(C)C	91 nM	–
COc1cccc2c1Sc1ccccc1C=C2OP(=O)(O)OC1CCC(C)CC1 (stereo unspecified)	4010 nM	–
COc1cccc2c1Sc1ccccc1C=C2OP(=O)(O)OC1CCCCC1C (stereo unspecified)	1730 nM	–
CC1(C)[C@@H]2CC[C@@](C)(C2)[C@@H]1OP(=O)(O)O[C@@H]1C(C)(C)[C@@H]2CC[C@@]1(C)C2	29600 nM	–
CC/C=C\CCCCOP(=O)(O)OC1=Cc2ccccc2Sc2c(OC)cccc21	517 nM	–
CCOCCOCCOP(=O)(O)OC1=Cc2ccccc2Sc2c(OC)cccc21	21800 nM	–
CC1(C)[C@@H]2CC[C@@](C)(C2)[C@@H]1OP(=O)(O)OC1=Cc2c(F)cccc2Sc2ccccc21	554 nM	–
CC1(C)[C@@H]2CC[C@@](C)(C2)[C@@H]1OP(=O)(O)OC1=Cc2ccccc2Sc2c(OC(F)(F)F)cccc21	12 nM	–
COc1cccc2c1Sc1ccccc1C=C2OP(=O)(O)OC1C(C)(C)CCCC1(C)C	110 nM	–
COc1cccc2c1Sc1ccccc1C=C2OP(=O)(O)OC1CCOC1 (stereo unspecified)	3990 nM	–
COc1cccc2c1Sc1ccccc1C=C2OP(=O)(O)O[C@@H]1C[C@H](C)CC[C@H]1C(C)C	68 nM	–
CCCCCCCCCOP(=O)(O)OC1=Cc2ccccc2Sc2c(OC)cccc21	194 nM	–
COc1cccc2c1Sc1ccccc1C=C2OP(=O)(O)Oc1cccc2ccccc12	130 nM	–
COc1cccc2c1Sc1ccccc1C=C2OP(=O)(O)OC12CC3CC(CC(C3)C1)C2	340 nM	–
COc1cccc2c1Sc1ccccc1C=C2OP(=O)(O)OC12CC3CC(C)(CC(C)(C3)C1)C2	126 nM	–
CCOC(=O)[C@H](CS)NC(C)=O	–	Activity (Mus musculus [2]): Active; Activity (Mus musculus [3]): Active; Activity (Mus musculus [4]): Active; Activity (Mus musculus [5]): Active; Activity (Mus musculus [6]): Active; Activity (Mus musculus [7]): Active; Activity (Mus musculus [8]): Active
CC1(C)[C@@H]2CC[C@@](C)(C2)[C@@H]1OP(=O)(O)OC1=Cc2ccccc2Oc2ccccc21	711 nM	–
COc1cccc2c1Sc1ccccc1C=C2OP(=O)(O)OC1CC1	39500 nM	–
COc1cccc2c1Sc1ccccc1C=C2OP(=O)(O)OC	2830 nM	–
CCCCCCCCP(=O)(O)OC1=Cc2ccccc2Sc2c(OC)cccc21	219 nM	–
COc1cccc2c1Sc1ccccc1C=C2OP(=O)(O)Oc1cc(C)ccc1C(C)C	658 nM	–
CC1(C)[C@@H]2CC[C@@](C)(C2)[C@@H]1OP(=O)(O)OC1=Cc2ccccc2Sc2ccccc21	166 nM	–
COc1cccc2c1Sc1ccccc1C=C2OP(=O)(O)Oc1ccc2ccccc2c1	609 nM	–
CCCCCCOP(=O)(O)OC1=Cc2ccccc2Sc2c(OC)cccc21	325 nM	–
COc1cccc2c1Sc1ccccc1C=C2OP(=O)(O)Oc1cc(C(C)C)ccc1C	196 nM	–
